{"source": "patent US11214803B2", "about": "“Modulators of YAP1 expression” (Ionis Pharmaceuticals, Inc., priority 2019, dated 2022)", "key": {"[1]": {"experiment": "Tolerability in CD-1 mice, body and organ weights (Example 15)", "format": "in vivo", "settings": "male CD-1 mice, 50 mg/kg s.c. twice a week for four weeks (8 treatments), end of study (day 26)", "procedure": "(§1) Groups of four male CD-1 mice at 4-5 weeks of age (obtained from Charles River) were injected subcutaneously twice a week for four weeks (for a total of 8 treatments) with 50 mg/kg of modified oligonucleotides. One group of male CD-1 mice was injected with PBS. Mice were euthanized on day 26 post start of treatment (24 hrs following the final administration).\n(§2) Body weights of CD-1 mice were measured at the end of the study, and the average body weight for each group is presented in the table below. Modified oligonucleotides that caused any changes in organ weights outside the expected range for modified oligonucleotides were excluded from further studies."}, "[2]": {"experiment": "Tolerability in Balb/c mice, body and organ weights (Example 11)", "format": "in vivo", "settings": "50 mg/kg subcutaneously twice a week for four weeks, end of study", "procedure": "as §1, with “of” for “of four”, “Balb/c” for “CD-1”, “4-6” for “4-5”, “Taconic)” for “Charles River)”, “hours” for “hrs”\nas §2, with “Balb/c” for “CD-1”"}, "[3]": {"tested_on": "Yap1 mRNA", "experiment": "Dose-dependent inhibition of human Yap1 in A-431 cells (Example 6, 5,000 cells per well, RTS4814)", "format": "cell-based", "settings": "Table 53, A-431 cells", "in_short": "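A-431 cells (5,000/well) took up oligonucleotides by free uptake at various doses for about 48 h. Yap1 mRNA was measured by RT-PCR (RTS4814), normalised to RIBOGREEN total RNA and expressed as % untreated control; IC50 by linear regression on a log/linear plot.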"}, "[4]": {"experiment": "Tolerability in Balb/c mice, plasma chemistry markers (Example 11)", "format": "in vivo", "settings": "50 mg/kg subcutaneously twice a week for four weeks", "procedure": "(§3) Balb/c mice were treated with modified oligonucleotides selected from studies described above and evaluated for changes in the levels of various plasma chemistry markers.\nas §1, with “of” for “of four”, “Balb/c” for “CD-1”, “4-6” for “4-5”, “Taconic)” for “Charles River)”, “hours” for “hrs”"}, "[5]": {"experiment": "Tolerability in Balb/c mice, plasma chemistry markers (Example 10)", "format": "in vivo", "settings": "male Balb/c mice, 50 mg/kg subcutaneously twice a week for four weeks, day 26", "procedure": "as §3\nas §1, with “of” for “of four”, “Balb/c” for “CD-1”, “4-6” for “4-5”, “Taconic)” for “Charles River)”, “hours” for “hrs”"}, "[6]": {"experiment": "Tolerability in Balb/c mice, body and organ weights (Example 10)", "format": "in vivo", "settings": "50 mg/kg subcutaneously twice a week for four weeks, end of study", "procedure": "as §1, with “of” for “of four”, “Balb/c” for “CD-1”, “4-6” for “4-5”, “Taconic)” for “Charles River)”, “hours” for “hrs”\nas §2, with “Balb/c” for “CD-1”"}, "[7]": {"experiment": "Tolerability in Balb/c mice, plasma chemistry markers (Example 12)", "format": "in vivo", "settings": "50 mg/kg subcutaneously twice a week for four weeks", "procedure": "as §3\nas §1, with “of” for “of four”, “Balb/c” for “CD-1”, “6-7” for “4-5”, “Taconic)” for “Charles River)”, “hours” for “hrs”"}, "[8]": {"experiment": "Tolerability in Balb/c mice, body and organ weights (Example 12)", "format": "in vivo", "settings": "male Balb/c mice, 50 mg/kg s.c. twice a week for four weeks (8 treatments), end of study (day 26)", "procedure": "as §1, with “of” for “of four”, “Balb/c” for “CD-1”, “6-7” for “4-5”, “Taconic)” for “Charles River)”, “hours” for “hrs”\nas §2, with “Balb/c” for “CD-1”"}, "[9]": {"tested_on": "Yap1 mRNA", "experiment": "Antisense inhibition of human Yap1 in SNU-449 cells by modified oligonucleotides, single dose (Example 5, RTS36584)", "format": "cell-based", "in_short": "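Plate SNU-449 cells at 10,000 per well; add 2,000 nM modified oligonucleotide without transfection reagent; after ~48 h isolate RNA, run qRT-PCR with RTS36584, normalise to RIBOGREEN and report % UTC.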"}}, "note": "Where “and” joins values, the source holds several entries; their conditions need not be identical. Equal values may be shown once. Strand notation (5' to 3'): a small letter for the sugar, then the base; units joined by * are phosphorothioate-linked, units joined directly phosphodiester-linked; [ ] holds rarer units or linkages, { } end groups; capitals alone tell only the bases. k = constrained ethyl (cEt); [5mC] = 5-methylcytosine; d = 2'-deoxy (DNA)", "data": [{"substance": "715487 (kA*kT*kT*dA*d[5mC]*dT*dT*d[5mC]*dA*dT*dA*dG*d[5mC]*kT*kT*kA) [compound 715487]", "values": [{"measurement": "Kidney weight", "setting": "[1]", "value": 0.59, "unit": "g"}, {"measurement": "Liver weight", "setting": "[1]", "value": 2.24, "unit": "g"}, {"measurement": "Spleen weight", "setting": "[1]", "value": 0.21, "unit": "g"}, {"measurement": "body weight", "setting": "[1]", "value": 41, "unit": "g"}, {"measurement": "Kidney weight", "setting": "[2]", "value": 0.42, "unit": "g"}, {"measurement": "Liver weight", "setting": "[2]", "value": 1.46, "unit": "g"}, {"measurement": "Spleen weight", "setting": "[2]", "value": 0.15, "unit": "g"}, {"measurement": "body weight", "setting": "[2]", "value": 27, "unit": "g"}, {"measurement": "IC50", "setting": "[3]; Yap1 mRNA, linear regression on a log/linear plot", "value": 1, "unit": "µM"}, {"measurement": "% UTC 148 nM", "setting": "[3]; free uptake, 148 nM, approximately 48 hours, RTS4814", "value": 87, "unit": "% UTC"}, {"measurement": "% UTC 444 nM", "setting": "[3]; free uptake, 444 nM, approximately 48 hours, RTS4814", "value": 56, "unit": "% UTC"}, {"measurement": "% UTC 1333 nM", "setting": "[3]; free uptake, 1333 nM, approximately 48 hours, RTS4814", "value": 48, "unit": "% UTC"}, {"measurement": "% UTC 4000 nM", "setting": "[3]; free uptake, 4000 nM, approximately 48 hours, RTS4814", "value": 29, "unit": "% UTC"}, {"measurement": "ALT", "setting": "[4]", "value": 59, "unit": "U/L"}, {"measurement": "AST", "setting": "[4]", "value": 81, "unit": "U/L"}, {"measurement": "BUN", "setting": "[4]", "value": 16, "unit": "mg/dL"}, {"measurement": "TBIL", "setting": "[4]", "value": 0.18, "unit": "mg/dL"}, {"measurement": "ALT (U/L)", "setting": "[5]", "value": 79, "unit": "U/L"}, {"measurement": "AST (U/L)", "setting": "[5]", "value": 96, "unit": "U/L"}, {"measurement": "TBIL", "setting": "[5]", "value": 0.13, "unit": "mg/dL"}, {"measurement": "Kidney weight", "setting": "[6]", "value": 0.36, "unit": "g"}, {"measurement": "Liver weight", "setting": "[6]", "value": 1.24, "unit": "g"}, {"measurement": "Spleen weight", "setting": "[6]", "value": 0.14, "unit": "g"}, {"measurement": "body weight", "setting": "[6]", "value": 23, "unit": "g"}]}, {"substance": "958499 (ATTAGAGTATGTGGCA; 3-10-3 cEt gapmer, further chemistry not given here) [compound 958499]", "values": [{"measurement": "ALT", "setting": "[7]", "value": 142, "unit": "U/L"}, {"measurement": "AST", "setting": "[7]", "value": 146, "unit": "U/L"}, {"measurement": "BUN", "setting": "[7]", "value": 26, "unit": "mg/dL"}, {"measurement": "TBIL", "setting": "[7]", "value": 0.17, "unit": "mg/dL"}, {"measurement": "Kidney weight", "setting": "[8]", "value": 0.32, "unit": "g"}, {"measurement": "Liver weight", "setting": "[8]", "value": 1.44, "unit": "g"}, {"measurement": "Spleen weight", "setting": "[8]", "value": 0.14, "unit": "g"}, {"measurement": "body weight", "setting": "[8]", "value": 23, "unit": "g"}]}, {"substance": "958499 (kA*kT*kT*dA*dG*dA*dG*dT*dA*dT*dG*dT*dG*kG*k[5mC]*kA) [Compound 958499]", "values": [{"measurement": "YAP1 (% UTC)", "setting": "[9]; Table 39, SNU-449 cells, 10,000 cells per well, free uptake, 2,000 nM oligonucleotide, approx. 48 hours, RTS36584, normalized to RIBOGREEN, Yap1 mRNA relative to untreated control", "value": 8, "unit": "% UTC"}, {"measurement": "YAP1 (% UTC)", "setting": "[9]; Table 40 (separate experiment), SNU-449 cells, 10,000 cells per well, free uptake, 2,000 nM oligonucleotide, approx. 48 hours, RTS36584, normalized to RIBOGREEN, Yap1 mRNA relative to untreated control", "value": 15, "unit": "% UTC"}, {"measurement": "YAP1 (% UTC)", "setting": "[9]; Table 41, SNU-449 cells, 10,000 cells per well, free uptake, 2,000 nM modified oligonucleotide, approximately 48 hours, RTS36584, normalized to RIBOGREEN, Yap1 mRNA relative to untreated control cells", "value": 14, "unit": "% UTC"}, {"measurement": "YAP1 (% UTC)", "setting": "[9]; Table 42 (separate experiment), SNU-449 cells, 10,000 cells per well, free uptake, 2,000 nM modified oligonucleotide, approximately 48 hours, RTS36584, normalized to RIBOGREEN, Yap1 mRNA relative to untreated control cells", "value": 15, "unit": "% UTC"}, {"measurement": "YAP1 (% UTC)", "setting": "[9]; Table 43 experiment, SNU-449 cells, 10,000 cells per well, free uptake, 2,000 nM, approximately 48 hours, RTS36584, Yap1 mRNA normalized to RIBOGREEN, relative to untreated control cells", "value": 14, "unit": "% UTC"}, {"measurement": "YAP1 (% UTC)", "setting": "[9]; Table 44 experiment, SNU-449 cells, 10,000 cells per well, free uptake, 2,000 nM, approximately 48 hours, RTS36584, Yap1 mRNA normalized to RIBOGREEN, relative to untreated control cells", "value": 9, "unit": "% UTC"}, {"measurement": "YAP1 (% UTC)", "setting": "[9]; Table 45, Yap1 mRNA as percent of untreated control, SNU-449 cells, single dose", "value": 15, "unit": "% UTC"}, {"measurement": "YAP1 (% UT)", "setting": "[9]; Table 46, Yap1 mRNA as percent of untreated control, SNU-449 cells, single dose", "value": 16, "unit": "% UT"}, {"measurement": "YAP1 (% UT)", "setting": "[9]; Table 48, Yap1 mRNA level relative to untreated control, modified oligonucleotides targeting SEQ ID NO.: 1 and 2", "value": 15, "unit": "% UT"}, {"measurement": "YAP1 (% UT)", "setting": "[9]; Table 49, Yap1 mRNA level relative to untreated control, modified oligonucleotides targeting SEQ ID NO.: 1 and 2", "value": 13, "unit": "% UT"}, {"measurement": "YAP1 (% UT)", "setting": "[9]; Table 50, Yap1 mRNA remaining as percent of untreated control (UT), SNU-449 cells, single dose", "value": 12, "unit": "% UT"}, {"measurement": "YAP1 (% UT)", "setting": "[9]; Table 51, Yap1 mRNA remaining as percent of untreated control (UT), SNU-449 cells, single dose", "value": 9, "unit": "% UT"}, {"measurement": "YAP1 (% UT)", "setting": "[9]; Table 52, Yap1 mRNA, modified oligonucleotides targeting SEQ ID NO: 1 and 2", "value": 14, "unit": "% UT"}, {"measurement": "YAP1 (% UT)", "setting": "[9]; Yap1 mRNA, percent of untreated control, modified oligonucleotides targeting SEQ ID NO: 1 and 2, Table 47", "value": "17 % UT and 10 % UT"}]}]}
